Source: patent US8940757B2, “Prasugrel in micronized, crystalline form and pharmaceutical composition thereof” (ratiopharm GmbH, priority 2010, dated 2015)
Converted amounts (≈) assume the structure as drawn.

Experiments:
pH-dependent degradation = format: physicochemical; details: pH values of <3, after 2 hours
Method: In addition, Prasugrel also has a strongly pH-dependent degradation. With pH values of <3 a degradation of more than 1% is observed already after 2 hours. This limits the potential excipients in the preparation of pharmaceutical formulations.

Solubility in water = format: physicochemical; details: free base
Method: Prasugrel is administered orally as platelet aggregation inhibitor. The problem here is that Prasugrel is a sparingly soluble active ingredient.

For CC(=O)Oc1cc2c(s1)CCN(C(C(=O)C1CC1)c1ccccc1F)C2 (stereo not drawn) [Prasugrel, 2-acetoxy-5-(α-cyclopropylcarbonyl-2-fluorobenzyl)-4,5,6,7-tetrahydrothieno[3,2-c]pyridine], the degradation (pH-dependent degradation) was “more than 1%” and the solubility (Solubility in water) was 57 µg/mL (≈ 153 µM).
